# Patent US20250179079A1, “HEXAHYDROPYRIDO[4,3-B]INDOLYL KETONE DERIVATIVES USEFUL AS CGAS MODULATORS” (Ventus Therapeutics U.S., Inc., priority 2022, published 2025)
# Like-named read-outs stand apart in the source and are kept apart here.
# Target: h-cGAS (Homo sapiens (Human), UniProt Q8N884)
# Test: hcGAS Kinase-Glo assay
# Assay type: biochemical
# [1] = Table C, raw data in parentheses, read-out: hcGAS IC50
# [2] = Table C, IC50 range designation, read-out: hcGAS IC50
# Sequence of h-cGAS (Q8N884 whole entry): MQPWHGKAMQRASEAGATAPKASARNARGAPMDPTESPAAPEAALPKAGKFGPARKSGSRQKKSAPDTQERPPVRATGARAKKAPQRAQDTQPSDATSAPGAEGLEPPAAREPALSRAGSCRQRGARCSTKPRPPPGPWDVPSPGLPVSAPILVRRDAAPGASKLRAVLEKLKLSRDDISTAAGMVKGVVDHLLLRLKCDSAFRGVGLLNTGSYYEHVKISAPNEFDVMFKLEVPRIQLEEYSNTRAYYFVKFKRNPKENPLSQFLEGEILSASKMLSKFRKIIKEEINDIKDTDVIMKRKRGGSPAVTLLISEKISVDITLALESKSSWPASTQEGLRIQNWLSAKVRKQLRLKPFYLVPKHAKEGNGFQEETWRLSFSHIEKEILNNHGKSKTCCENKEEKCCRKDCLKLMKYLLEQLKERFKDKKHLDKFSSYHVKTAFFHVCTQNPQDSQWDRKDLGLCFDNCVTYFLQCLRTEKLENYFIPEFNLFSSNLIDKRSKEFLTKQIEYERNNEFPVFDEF
IC50 [1] [nM],IC50 (read-out: hcGAS activity) [nM],IC50 [2] [nM],Compound
68.5,< 100,,"CC1c2c([nH]c3c(Cl)c(Cl)ccc23)CCN1C(=O)c1ncc(N2CCOCC2)cn1 (racemic) [Rac-44, (6,7-dichloro-1-methyl-1,3,4,5-tetrahydro-2H-pyrido[4,3-b]indol-2-yl)(5-morpholinopyrimidin-2-yl)methanone]"
51.4,< 100,,"CNc1cnc(C(=O)N2CCc3[nH]c4c(Cl)c(Cl)ccc4c3C2C)nc1 (racemic) [Rac-46, (6,7-dichloro-1-methyl-1,3,4,5-tetrahydro-2H-pyrido[4,3-b]indol-2-yl)(5-(methylamino)pyrimidin-2-yl)methanone]"
50.1,,,"CC1c2c([nH]c3c(Cl)c(Cl)ccc23)CCN1C(=O)c1ncc(N(C)CCN(C)C)cn1 (racemic) [Rac-47, (6,7-dichloro-1-methyl-1,3,4,5-tetrahydro-2H-pyrido[4,3-b]indol-2-yl)(5-((2-(dimethylamino)ethyl)(methyl)amino)pyrimidin-2-yl)methanone]"
52,,,"CC1c2c([nH]c3c(Cl)c(Cl)ccc23)CCN1C(=O)c1ncc(N2CCN(C)CC2)cn1 (racemic) [Rac-48, (6,7-dichloro-1-methyl-1,3,4,5-tetrahydro-2H-pyrido[4,3-b]indol-2-yl)(5-(4-methylpiperazin-1-yl)pyrimidin-2-yl)methanone]"
102,,,"CC1c2c([nH]c3c(Cl)c(Cl)ccc23)CCN1C(=O)c1ncc(N2CCN(C3COC3)CC2)cn1 (racemic) [Rac-49, (6,7-dichloro-1-methyl-1,3,4,5-tetrahydro-2H-pyrido[4,3-b]indol-2-yl)(5-(4-(oxetan-3-yl)piperazin-1-yl)pyrimidin-2-yl)methanone]"
89.5,,,"CC1c2c([nH]c3c(Cl)c(Cl)ccc23)CCN1C(=O)c1ncc(N2CCN3CC(F)(F)C[C@H]3C2)cn1 (mixture of isomers) [Rac-50, (6,7-dichloro-1-methyl-1,3,4,5-tetrahydro-2H-pyrido[4,3-b]indol-2-yl)(5-((S)-7,7-difluorohexahydropyrrolo[1,2-a]pyrazin-2(1H)-yl)pyrimidin-2-yl)methanone]"
37.7,,,"CC1c2c([nH]c3c(Cl)c(Cl)ccc23)CCN1C(=O)CN (racemic) [Rac-51, 2-amino-1-(6,7-dichloro-1-methyl-1,3,4,5-tetrahydro-2H-pyrido[4,3-b]indol-2-yl)ethan-1-one]"
251,< 100,,"COCCOc1ccnc(C(=O)N2CCc3[nH]c4c(Cl)c(Cl)ccc4c3C2C)n1 (racemic) [Rac-67, (6,7-dichloro-1-methyl-1,3,4,5-tetrahydro-2H-pyrido[4,3-b]indol-2-yl)(4-(2-methoxyethoxy)pyrimidin-2-yl)methanone]"
94.5,< 100,,"COc1ccnc(C(=O)N2CCc3[nH]c4c(Cl)c(Cl)ccc4c3C2C)n1 (racemic) [Rac-68, (6,7-dichloro-1-methyl-1,3,4,5-tetrahydro-2H-pyrido[4,3-b]indol-2-yl)(4-methoxypyrimidin-2-yl)methanone]"
78.7,< 100,,"CC1c2c([nH]c3c(Cl)c(Cl)ccc23)CCN1C(=O)c1nccc(OCCO)n1 (racemic) [Rac-70, (6,7-dichloro-1-methyl-1,3,4,5-tetrahydro-2H-pyrido[4,3-b]indol-2-yl)(4-(2-hydroxyethoxy)pyrimidin-2-yl)methanone]"
206,,,"COc1cnc(C(=O)N2CCc3[nH]c4c(Cl)c(Cl)ccc4c3C2C)nc1OC (racemic) [Rac-83, (6,7-dichloro-1-methyl-1,3,4,5-tetrahydro-2H-pyrido[4,3-b]indol-2-yl)(4,5-dimethoxypyrimidin-2-yl)methanone]"
110,,,"CC1c2c([nH]c3c(Cl)c(Cl)ccc23)CCN1C(=O)c1nccc(OCCN(C)C)n1 (racemic) [Rac-88, (6,7-dichloro-1-methyl-1,3,4,5-tetrahydro-2H-pyrido[4,3-b]indol-2-yl)(4-(2-(dimethylamino)ethoxy)pyrimidin-2-yl)methanone]"
821,,,"CC1c2c([nH]c3c(Cl)c(Cl)ccc23)CCN1C(=O)NO (racemic) [Rac-97, 6,7-dichloro-N-hydroxy-1-methyl-1,3,4,5-tetrahydro-2H-pyrido[4,3-b]indole-2-carboxamide]"
1320,,,"CONC(=O)N1CCc2[nH]c3c(Cl)c(Cl)ccc3c2C1C (racemic) [Rac-98, 6,7-dichloro-N-methoxy-1-methyl-1,3,4,5-tetrahydro-2H-pyrido[4,3-b]indole-2-carboxamide]"
409,,,"COc1cnc(C(=O)N2CCc3[nH]c4c(Cl)c(Cl)cc(SC)c4c3C2C)nc1 (racemic) [Rac-101, (6,7-dichloro-1-methyl-9-(methylthio)-1,3,4,5-tetrahydro-2H-pyrido[4,3-b]indol-2-yl)(5-methoxypyrimidin-2-yl)methanone]"
115,,,"COc1cnc(C(=O)N2CCc3[nH]c4c(Cl)c(Cl)cc(C)c4c3C2C)nc1 (racemic) [Rac-103, (6,7-dichloro-1,9-dimethyl-1,3,4,5-tetrahydro-2H-pyrido[4,3-b]indol-2-yl)(5-methoxypyrimidin-2-yl)methanone]"
45.5,,,"COc1cnc(C(=O)N2CCc3[nH]c4c(Cl)c(Cl)cc(OC)c4c3C2C)nc1 (racemic) [Rac-132, (6,7-dichloro-9-methoxy-1-methyl-1,3,4,5-tetrahydro-2H-pyrido[4,3-b]indol-2-yl)(5-methoxypyrimidin-2-yl)methanone]"
> 10000,,> 5000,"C[C@@H]1c2c([nH]c3c(Cl)c(Cl)ccc23)CCN1C(=O)CN (single isomer, unassigned) [51A*]"

IC50 [1] [nM],IC50 (read-out: hcGAS activity) [nM],IC50 [2] [nM],Compound
17.8,,< 100,"C[C@H]1c2c([nH]c3c(Cl)c(Cl)ccc23)CCN1C(=O)CN (single isomer, unassigned) [51B*]"
> 10000,,> 5000,"COc1cnc(C(=O)N2CCn3nc4c(Cl)c(Cl)ccc4c3[C@H]2C)nc1 (single isomer, unassigned) [52A*]"
71.5,,< 100,"COc1cnc(C(=O)N2CCn3nc4c(Cl)c(Cl)ccc4c3[C@@H]2C)nc1 (single isomer, unassigned) [52B*]"
> 10000,,> 5000,"C[C@@H]1c2c3c(-c4ccn(C)n4)cc(Cl)c(Cl)c3nn2CCN1C(=O)CO (single isomer, unassigned) [61A*]"
59.9,,< 100,"C[C@H]1c2c3c(-c4ccn(C)n4)cc(Cl)c(Cl)c3nn2CCN1C(=O)CO (single isomer, unassigned) [61B*]"
587,,,"C[C@H]1c2c([nH]c3c(Cl)c(Cl)ccc23)CCN1C(=O)c1ncc(C#N)[nH]1 (single isomer, unassigned) [95B*]"
878,500 to 1000,500 to 1000,"O=C(c1ncc[nH]1)N1CCc2[nH]c3c(Cl)c(Cl)ccc3c2C1 [Compound 5, (6,7-dichloro-1,3,4,5-tetrahydro-2H-pyrido[4,3-b]indol-2-yl)(1H-imidazol-2-yl)methanone]"
3300,1000 to 5000,1000 to 5000,"O=C(c1nnn[nH]1)N1CCc2[nH]c3c(Cl)c(Cl)ccc3c2C1 [Compound 7, (6,7-dichloro-1,3,4,5-tetrahydro-2H-pyrido[4,3-b]indol-2-yl)(1H-tetrazol-5-yl)methanone]"
1070,1000 to 5000,1000 to 5000,"Cn1cnc(C(=O)N2CCc3[nH]c4c(Cl)c(Cl)ccc4c3C2)n1 [Compound 9, (6,7-dichloro-1,3,4,5-tetrahydro-2H-pyrido[4,3-b]indol-2-yl)(1-methyl-1H-1,2,4-triazol-3-yl)methanone]"
3220,1000 to 5000,1000 to 5000,"Cc1cnc(C(=O)N2CCc3[nH]c4c(Cl)c(Cl)ccc4c3C2)[nH]1 [Compound 10, (6,7-dichloro-1,3,4,5-tetrahydro-2H-pyrido[4,3-b]indol-2-yl)(5-methyl-1H-imidazol-2-yl)methanone]"
1520,1000 to 5000,1000 to 5000,"Nc1ccnc(C(=O)N2CCc3[nH]c4c(Cl)c(Cl)ccc4c3C2)n1 [Compound 14, (4-aminopyrimidin-2-yl)(6,7-dichloro-1,3,4,5-tetrahydro-2H-pyrido[4,3-b]indol-2-yl)methanone]"
842,500 to 1000,500 to 1000,"O=C(c1ncc(F)cn1)N1CCc2[nH]c3c(Cl)c(Cl)ccc3c2C1 [Compound 15, (6,7-dichloro-1,3,4,5-tetrahydro-2H-pyrido[4,3-b]indol-2-yl)(5-fluoropyrimidin-2-yl)methanone]"
2250,1000 to 5000,1000 to 5000,"COCCOCn1c2c(c3ccc(Cl)c(Cl)c31)CN(C(=O)c1ncc(OC)cn1)CC2 [Compound 23, (6,7-dichloro-5-((2-methoxyethoxy)methyl)-1,3,4,5-tetrahydro-2H-pyrido[4,3-b]indol-2-yl)(5-methoxypyrimidin-2-yl)methanone]"
222,100 to 500,100 to 500,"O=C(c1ncc(N2CCOCC2)cn1)N1CCc2[nH]c3c(Cl)c(Cl)ccc3c2C1 [Compound 31, (6,7-dichloro-1,3,4,5-tetrahydro-2H-pyrido[4,3-b]indol-2-yl)(5-morpholinopyrimidin-2-yl)methanone]"
4350,,1000 to 5000,"COc1ccc(C(=O)N2CCc3[nH]c4c(Cl)c(Cl)ccc4c3C2)nn1 [Compound 56, (6,7-dichloro-1,3,4,5-tetrahydro-2H-pyrido[4,3-b]indol-2-yl)(6-methoxypyridazin-3-yl)methanone]"
4210,1000 to 5000,1000 to 5000,"NC(=O)C(=O)N1CCc2[nH]c3c(Cl)c(Cl)ccc3c2C1 [Compound 57, 2-(6,7-dichloro-1,3,4,5-tetrahydro-2H-pyrido[4,3-b]indol-2-yl)-2-oxoacetamide]"
620,100 to 500,100 to 500,"NNC(=O)N1CCc2[nH]c3c(Cl)c(Cl)ccc3c2C1 [Compound 59, 6,7-dichloro-1,3,4,5-tetrahydro-2H-pyrido[4,3-b]indole-2-carbohydrazide]"
1490,1000 to 5000,,"CNCC(=O)N1CCc2[nH]c3c(Cl)c(Cl)ccc3c2C1 [Compound 64, 1-(6,7-dichloro-1,3,4,5-tetrahydro-2H-pyrido[4,3-b]indol-2-yl)-2-(methylamino)ethan-1-one]"
